Data published in patent US20160046665A1, “Peptide Ligand with Antibody Selectivity and the Application Thereof” (National Central University, priority 2014, published 2016).
“Also recorded” adds a separate entry of the source.

Key:
Assay type in all cases: binding
[1] = system: PSA; assay: SPR sensitivity detection with micro concentration antigen, chip with Rabbit IgG; details: Rabbit IgG absorbed on chip, Rabbit IgG flowed again for increasing signal, FIG. 7A
Description: In the following experiments, antigen in micro concentration is employed for detecting the sensitivity of peptide ligand chips being able to recognize Rabbit IgG and Mouse IgG2a, and the experimental results are shown in FIG. 7A and FIG. 7B.
Firstly, Rabbit IgG and Mouse IgG2a are respectively absorbed to GGEGELW and GGRRGW. After flowing micro concentration antigen through, Rabbit IgG and Mouse IgG2a are flowed through the chip surface for increasing the detected signal. […] According to FIG. 7A and FIG. 7B, the signal of about 2 ng/mL PSA can be detected from Mouse IgG2a of GGRRGW chip surface, and the signal of about 1 ng/mL PSA can be detected from Rabbit IgG of GGEGELW chip surface. Therefore, it proves that the peptide ligand of this specification can efficiently improve the antigen sensitivity.

[2] = system: prostate specific antigen (PSA); assay: SPR PSA absorption / antigen recognition on chip surfaces with Mouse IgG2a
Description: (§1) In this example, SPR is employed for measuring the absorption of target antibody, rabbit immunoglobulin (Rabbit IgG), and target antigen, prostate specific antigen (PSA), on different charge surfaces and different peptide ligand surfaces. The mentioned different chip surfaces are employed for absorbing Rabbit IgG, washed with phosphate buffer (PB) solution, and employed to absorb PSA directly. Then, PB buffer solution is used to wash out the PSA not recognized by Rabbit IgG for measuring the absorption of antibody and antigen. The experimental process is roughly shown as following.
(§2) Different chips with Rabbit IgG and Mouse IgG2a are used for PSA absorption experiment, and the PSA absorption is transferred to protein absorption by the above-mentioned formula, as shown in FIG. 3A and FIG. 3B.
(§3) In order to compare antigen recognition efficiency, we define “antigen recognition efficiency” as following: […]

[3] = system: prostate specific antigen (PSA); assay: SPR PSA absorption / antigen recognition on chip surfaces with Rabbit IgG; details: FIG. 4A
Description: as §1
(§4) 1. 10 μg/mL Rabbit IgG is prepared in 0.01 M pH=7.4 PB buffer solution.
2. 5 μg/mL PSA is prepared in 0.01 M pH=7.4 PB buffer solution.
3. The negative charge, positive charge, and peptide ligand modified chips are put on SPR respectively.
4. The flow rate is set at 20 μL/min.
5. Rabbit IgG, PB, PSA, and PB are flowed through the channel in sequence. The absorption time is about 60 minutes, and the desorption time is about 50 minutes.
as §2, §3

[4] = system: Mouse IgG2a; assay: SPR absorption of Mouse IgG2a on different chip surfaces; details: FIG. 2
Description: (§5) In this and the following examples, we employ Surface Plasmon resonance (SPR) as detecting equipment. The method for modifying SPR chip surface is briefly illustrated as following.
(§6) OEG [(11-Mercaptoundecyl)tetra(ethyleneglycol)] and OEG-COOH [HS(CH2)11(EG)6OCH2COOH] are mixed at the ratio of 10:1. Through strong gold-sulfur bonding, OEG and OEG-COOH are employed for modifying SPR chip surface to form mixed SAM (self-assembly monolayer). The mixed SAM surface comprises carboxyl group with negative charge, and hydroxyl group with hydrophilicity. The carboxyl group with negative charge on the SPR chip surface can be activated by EDC/20% DMSO. By reacting the 1° amino group of EDA (ethylenediamine) with the carboxyl group on the SPR chip surface to form amide bonding, the SPR chip surface can be modified into positive charge. And, in the same condition, the peptide ligand according to this invention can be grafted onto the SPR chip surface to form a peptide ligand surface.)
(§7) 1. 5 mM peptide ligand, 200 mM EDC, and 20% DMSO are prepared into 0.1 M pH=6.0 MES buffer solution.
(§8) In the above experiments, Surface Plasmon Resonance (SPR) is employed for measuring the antigen recognition efficiency of antibody on different modified chip surfaces. The recognition efficiency of Rabbit IgG and PSA on different chip with different charge surface and different peptide ligand is detected. […]

[5] = system: Rabbit IgG; assay: SPR absorption of Rabbit IgG on different chip surfaces
Description: as §5, §6, §7, §1, §4
3. […]
as §8

[6] = system: Mouse IgG2a; assay: SPR analysis of antibody oriented immobilization (orientation factor), Mouse IgG2a; details: ratio of PSA and 2nd antibody, FIG. 6B
Target sequence in this assay (P01863 98-330 limits assumed): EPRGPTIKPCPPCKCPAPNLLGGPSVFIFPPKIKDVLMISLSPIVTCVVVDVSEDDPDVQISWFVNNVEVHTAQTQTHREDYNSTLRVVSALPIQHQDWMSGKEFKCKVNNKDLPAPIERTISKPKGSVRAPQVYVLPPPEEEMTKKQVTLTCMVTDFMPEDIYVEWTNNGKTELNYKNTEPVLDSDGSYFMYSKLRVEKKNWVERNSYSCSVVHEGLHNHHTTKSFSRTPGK

Sequence of Rabbit IgG (P01870 101-323 limits assumed): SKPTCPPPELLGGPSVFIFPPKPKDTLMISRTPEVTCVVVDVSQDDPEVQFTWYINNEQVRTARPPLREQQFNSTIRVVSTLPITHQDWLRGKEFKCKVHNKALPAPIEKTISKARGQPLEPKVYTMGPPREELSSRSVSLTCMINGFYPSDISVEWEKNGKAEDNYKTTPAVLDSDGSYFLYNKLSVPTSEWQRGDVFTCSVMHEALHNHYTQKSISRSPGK

GGEGELW was tested, and the “PSA concentration whose signal can be detected by SPR” value [1] was “about 1 ng/mL”.

In the case of RRGW, the “antigen recognition efficiency of Mouse IgG2a” value ([2]; PSA, FIG. 4B) is reported as “great”, the “PSA absorption on chip surface with Mouse IgG2a (in words)” value ([2]; SPR, FIG. 3B) is reported as “great” and the “oriented immobilization of Mouse IgG2a on chip surface” value ([2]; deduced from Mouse IgG2a and PSA absorption) is reported as “great”. The “antigen recognition efficiency of Rabbit IgG” value [3] was “not good”, the “Mouse IgG2a absorption on chip surface (in words)” value [4] was “great; also recorded: higher” and the “specificity to these antibodies” value ([5]; Rabbit IgG versus Mouse IgG2a absorption, FIG. 1B compared with FIG. 2) was “does not have specificity”. The “Rabbit IgG absorption on chip surface (in words)” value ([5]; SPR, FIG. 1B) was “not much difference; also recorded: great”, the “Rabbit IgG absorption to the chip surface” value ([5]; SPR, peptide ligand chip surface, FIG. 3A) was “about 0.2 mol/cm^2” and the “orientation factor, chip surface with Mouse IgG2a” value [6] was “good”.
